Molecular target: T1, human zDHHC2 (Homo sapiens, UniProt Q9UIJ5)
T1 construct: expressed in transfected cells; host or cells: HEK293T
T1 sequence (Q9UIJ5 1-367): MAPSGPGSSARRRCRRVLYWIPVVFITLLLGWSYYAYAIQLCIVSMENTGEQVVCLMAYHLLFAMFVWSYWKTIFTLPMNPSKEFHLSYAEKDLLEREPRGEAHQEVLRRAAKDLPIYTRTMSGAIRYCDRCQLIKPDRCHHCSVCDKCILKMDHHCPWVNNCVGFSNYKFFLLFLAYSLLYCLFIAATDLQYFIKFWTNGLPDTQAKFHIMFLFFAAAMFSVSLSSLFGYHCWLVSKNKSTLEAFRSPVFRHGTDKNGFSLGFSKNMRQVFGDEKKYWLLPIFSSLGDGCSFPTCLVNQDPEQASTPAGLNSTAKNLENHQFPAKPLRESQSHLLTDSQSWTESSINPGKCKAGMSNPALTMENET
Assay: TR-FRET high-throughput assay of zDHHC2 autoacylation (HA-zDHHC2 lipoparticles, NBD-palmitoyl-CoA)
Assay type: biochemical
Conditions: Ono; for inhibition at 4.2 µM: compound 4.2 μM; for inhibition at 12.5 µM: compound 12.5 μM
Excerpt: S-acylation is a two-step process involving enzyme “autoacylation” (at the cysteine of the DHHC motif) followed by transfer of the acyl chain to a substrate protein. To identify potential inhibitors of S-acylation, we developed an assay measuring enzyme autoacylation and focused on zDHHC2 given its prominent role in synaptic function in the nervous system (Fig. 1A). The assay monitors time-resolved FRET (TR-FRET) between the energy donor terbium cryptate (attached to an antibody recognizing hemagglutinin [HA]-tagged zDHHC2) and the acceptor fluorophore nitrobenzoxadiazole (NBD) (attached to the lipid group). The excitation of the energy donor terbium cryptate (360 nm) followed by its emission at 480 nm results in energy transfer to the acceptor NBD and emission at 539 nm. Enzyme autoacylation by NBD-conjugated palmitoyl-CoA increases the proximity of the terbium cryptate and NBD, leading to an increase in FRET signal. The resulting interaction is quantified as the ratiometric measurement of NBD (539 nm) over terbium (480 nm) emission and constitutes the TR-FRET signal.
Figure 1 High-throughput screen (HTS) for the discovery of chemical compounds modulating human zDHHC2 autoacylation activity: TR-FRET-based assay.A, experimental design of the HTS. HA-tagged zDHHC2 enzyme expressed at the surface of lipoparticles was incubated for 15 min at room temperature (RT) with NBD-tagged palmitoyl-CoA and an anti-HA antibody coupled to terbium (Tb) cryptate. Autoacylation of zDHHC2 on its catalytic cysteine brings closer the FRET donor Tb cryptate bound to the anti-HA antibody to the NBD fluorophore coupled to the palmitate and triggers FRET that can be followed over time (time-resolved FRET [TR-FRET]). B, TR-FRET was measured with increasing concentrations of NBD-palmitoyl-CoA (NBD-C16:0-CoA) and either WT zDHHC2 (left panel) or catalytically dead zDHHC2 C157S (right panel) over a period of 35 min. C, experimental conditions of the HTS screen. About 350,000 compounds were incubated individually in 1536-well plates at a concentration of 4.2 μM with zDHHC2 lipoparticles (42 μg/ml stock) for a few minutes before the addition of a mix containing the Tb cryptate–tagged anti-HA antibody (1:200 dilution) and 1 μM of NBD-palmitoyl-CoA (NBD-C16:0-CoA). TR-FRET was measured after a 15 min incubation at room temperature on a Biotek Synergy Neo apparatus. Results are given as a ratio between the FRET signal measured over a background baseline. D, histogram representation of ONO library screen showing the percentage of activity of zDHHC2 (as measured by TR-FRET) in the presence of each compound. The graph represents the number of compounds that are either activating (0 to 100) or inhibiting (0 to −100) zDHHC2 activity. […]

`O=C(Nc1cccc2c1OC(c1nnn[nH]1)CN2)c1ccc(OCCCCc2ccccc2)cc1` (stereo not shown) [TTZ-2, N-(2-(1H-Tetrazol-5-yl)-3,4-dihydro-2H-benzo[b][1,4]oxazin-8-yl)-4-(4-phenylbutoxy)benzamide] gave an inhibition at 4.2 µM of 45% and an inhibition at 12.5 µM of 69%.
`CCCCCCCOc1ccc(C(=O)Nc2cccc3c2OC(c2nnn[nH]2)CN3)cc1` (stereo not shown) [TTZ-1, N-(2-(1H-Tetrazol-5-yl)-3,4-dihydro-2H-benzo[b][1,4]oxazin-8-yl)-4-(heptyloxy)benzamide] was tested, and the inhibition at 4.2 µM was 32% and the inhibition at 12.5 µM was 61%.

Reference: paper PMC9558053, “Development of a novel high-throughput screen for the identification of new inhibitors of protein S-acylation” (The Journal of Biological Chemistry, 2022)
